Data published in patent publication US20220073536A1 (Rigel Pharmaceuticals, Inc., priority 2003, published 2022).
Counter-ions that a name gives are not always drawn.

The molecules below were run on cultured human mast cells (CHMC) (assay: CHMC low cell density IgE activation: tryptase assay). Details: Homo sapiens, Mast cell, low cell density CHMC, IgE activation, tryptase, 3 pt; read-out: LD Tryptase, CHMC, IgE, 3 pt.
Assay type: cell-based
Outline: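 Fluorogenic readout of tryptase released into the supernatant (30 min substrate incubation, room temperature) measures degranulation. Cells were plated at low density (1000–1500/well, varied by donor) and triggered with anti-IgE for 30 min at 37 °C.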

Row | SMILES | IC50 [µM]
1 | Cc1cc(Nc2ncc(F)c(NC(C)C)n2)ccc1N1CCN(C)CC1 [Compound 1206] | < 10
2 | CN1CCN(c2ccc(Nc3ncc(F)c(NC4CCC4)n3)cc2C(F)(F)F)CC1 [Compound 1207] | < 10
3 | CN1CCN(c2ccc(Nc3ncc(F)c(NC4CCCC4)n3)cc2C(F)(F)F)CC1 [Compound 1208] | < 10
4 | CN1CCN(c2ccc(Nc3ncc(F)c(NC4CCCCC4)n3)cc2C(F)(F)F)CC1 [Compound 1209] | < 10
5 | CC(C)Nc1nc(Nc2ccc(N3CCN(C)CC3)c(C(F)(F)F)c2)ncc1F [Compound 1210] | < 10
6 | CN1C(C)(C)CC(Nc2nc(Cl)ncc2F)CC1(C)C [Compound 1212] | > 10
7 | CCOC(=O)N1CCC(Nc2nc(Cl)ncc2F)CC1 [Compound 1213] | > 10
8 | CC(C)Nc1nc(Nc2cccc(N3CCN(C)CC3)c2)ncc1F [Compound 1214] | > 10
9 | CN1CCN(c2ccc(Nc3ncc(F)c(NC(C)(C)C)n3)cc2)CC1 [Compound 1215] | > 10
10 | CN1CCN(c2cccc(Nc3ncc(F)c(NC(C)(C)C)n3)c2)CC1 [Compound 1216] | > 10
11 | CN1CCN(c2ccc(Nc3ncc(F)c(NC(C)(C)C)n3)cc2Cl)CC1 [Compound 1217] | < 10
12 | CN1CCN(c2ccc(Nc3ncc(F)c(NC4CC(C)(C)N(C)C(C)(C)C4)n3)cc2)CC1 [Compound 1219] | > 10
13 | CN1CCN(c2cccc(Nc3ncc(F)c(NC4CC(C)(C)N(C)C(C)(C)C4)n3)c2)CC1 [Compound 1221] | > 10
14 | CN1CCN(c2ccc(Nc3ncc(F)c(NC4CC(C)(C)N(C)C(C)(C)C4)n3)cc2Cl)CC1 [Compound 1222] | > 10
15 | Cc1cc(Nc2ncc(F)c(NC3CC(C)(C)N(C)C(C)(C)C3)n2)ccc1N1CCN(C)CC1 [Compound 1223] | < 10
16 | CN1CCN(c2ccc(Nc3ncc(F)c(NC4CC(C)(C)N(C)C(C)(C)C4)n3)cc2C(F)(F)F)CC1 [Compound 1224] | > 10
17 | CCOC(=O)N1CCC(Nc2nc(Nc3ccc(N4CCN(C)CC4)cc3)ncc2F)CC1 [Compound 1225] | < 10
18 | CCOC(=O)N1CCC(Nc2nc(Nc3cccc(N4CCN(C)CC4)c3)ncc2F)CC1 [Compound 1226] | < 10
19 | CCOC(=O)N1CCC(Nc2nc(Nc3ccc(N4CCN(C)CC4)c(Cl)c3)ncc2F)CC1 [Compound 1227] | < 10
20 | CCOC(=O)N1CCC(Nc2nc(Nc3ccc(N4CCN(C)CC4)c(C)c3)ncc2F)CC1 [Compound 1228] | < 10
21 | CCOC(=O)N1CCC(Nc2nc(Nc3ccc(N4CCN(C)CC4)c(C(F)(F)F)c3)ncc2F)CC1 [Compound 1229] | < 10
22 | CCN1CCN(c2ccc(Nc3ncc(F)c(NC4CCC4)n3)cn2)CC1 [Compound 1230] | < 10
23 | CCN1CCN(c2ccc(Nc3ncc(F)c(NC4CCCC4)n3)cn2)CC1 [Compound 1231] | < 10

Row | SMILES | IC50 [µM]
24 | CCN1CCN(c2ccc(Nc3ncc(F)c(NC4CCCCC4)n3)cn2)CC1 [Compound 1232] | < 10
25 | CN1CCN(c2ccc(Nc3ncc(F)c(NC(C)(C)C)n3)cc2C(F)(F)F)CC1 [Compound 1233] | < 10
26 | CCN1CCN(c2ccc(Nc3ncc(F)c(NC(C)C)n3)cn2)CC1 [Compound 1234] | < 10
27 | CCN1CCN(c2ccc(Nc3ncc(F)c(NC(C)(C)C)n3)cn2)CC1 [Compound 1236] | > 10
28 | CCN1CCN(c2ccc(Nc3ncc(F)c(NC4CC(C)(C)N(C)C(C)(C)C4)n3)cn2)CC1 [Compound 1237] | > 10
29 | CCOC(=O)N1CCC(Nc2nc(Nc3ccc(N4CCN(CC)CC4)nc3)ncc2F)CC1 [Compound 1238] | > 10
30 | Cc1cc(Nc2ncc(F)c(NC3CCC3)n2)cnc1N1CCN(C)CC1 [Compound 1239] | > 10
31 | Cc1cc(Nc2ncc(F)c(NC3CCCC3)n2)cnc1N1CCN(C)CC1 [Compound 1240, N4-Cyclopentyl-5-fluoro-N2-[2-(4-methylpiperazino)-3-methylpyrid-5-yl]-2,4-pyrimidinediamine] | < 10
32 | Cc1cc(Nc2ncc(F)c(NC3CCCCC3)n2)cnc1N1CCN(C)CC1 [Compound 1241] | < 10
33 | Cc1cc(Nc2ncc(F)c(NC(C)C)n2)cnc1N1CCN(C)CC1 [Compound 1242] | < 10
34 | Cc1cc(Nc2ncc(F)c(NC3CC(C)(C)N(C)C(C)(C)C3)n2)cnc1N1CCN(C)CC1 [Compound 1244] | > 10
35 | Cc1cc(N2CCN(C)CC2)ncc1Nc1ncc(F)c(NC2CCC2)n1 [Compound 1245] | > 10
36 | Cc1cc(N2CCN(C)CC2)ncc1Nc1ncc(F)c(NC2CCCC2)n1 [Compound 1246] | > 10
37 | Cc1cc(N2CCN(C)CC2)ncc1Nc1ncc(F)c(NC2CCCCC2)n1 [Compound 1247] | < 10
38 | Cc1cc(N2CCN(C)CC2)ncc1Nc1ncc(F)c(NC(C)C)n1 [Compound 1248] | > 10
39 | Cc1cc(N2CCN(C)CC2)ncc1Nc1ncc(F)c(NC2CC(C)(C)N(C)C(C)(C)C2)n1 [Compound 1249] | > 10
40 | Cc1cc(Nc2ncc(F)c(NC3(CO)CCCC3)n2)ccc1N1CCN(C)CC1 [Compound 1250] | < 10
41 | COC(=O)c1ccc(Nc2ncc(F)c(Nc3ccc(Cl)c(Cl)c3)n2)cc1 [Compound 1261] | > 10
42 | COC(=O)CCNC(=O)c1ccc(Nc2ncc(F)c(Nc3ccc4c(n3)NC(=O)C(C)(C)O4)n2)cc1 [Compound 1312, N4-(2,2-Dimethyl-3-oxo-4H-5-pyrid[1,4]oxazin-6-yl)-5-fluoro-N2-[4-[N-(2-methoxycarbonylethyl)aminocarbonyl]phenyl]-2,4-pyrimidinediamine] | < 10
43 | NC(=O)c1ccc(Nc2nc(Nc3cccc(O)c3)ncc2F)cc1 [Compound 1334] | < 10
44 | NC(=O)c1ccc(Nc2nc(Nc3cc(Cl)c(O)c(Cl)c3)ncc2F)cc1 [Compound 1335] | < 10
45 | COc1ccc(Nc2ncc(F)c(Nc3ccc(C(N)=O)cc3)n2)cc1Cl [Compound 1336] | < 10
46 | NC(=O)c1ccc(Nc2ncc(F)c(Nc3ccc(C(N)=O)cc3)n2)cc1 [Compound 1339] | > 10

Same assay, conditions: Homo sapiens, Mast cell, low cell density CHMC, IgE activation, tryptase, 8 pt; read-out: LD Tryptase, CHMC, IgE, 8 pt

Row | SMILES | IC50 [µM]
47 | Cc1cc(Nc2ncc(F)c(NC(C)C)n2)ccc1N1CCN(C)CC1 [Compound 1206] | > 10
48 | Cc1cc(Nc2ncc(F)c(NC(C)(C)C)n2)ccc1N1CCN(C)CC1 [Compound 1218] | < 10
49 | Cc1cc(Nc2ncc(F)c(NC3CCC3)n2)ccc1N1CCN(C)CC1 [Compound 1220] | < 10
50 | CN1CCN(c2ccc(Nc3ncc(F)c(NC4CCC4)n3)cc2CO)CC1 [Compound 1235] | > 10
51 | Cc1cc(C)cc(Nc2ncc(F)c(Nc3nc(N)n[nH]3)n2)c1 [Compound 1252] | > 10
52 | COc1ccc(Nc2ncc(F)c(Nc3n[nH]c(N)n3)n2)cc1Cl [Compound 1253] | > 10
53 | Nc1nc(Nc2nc(Nc3ccc(Cl)c(Cl)c3)ncc2F)n[nH]1 [Compound 1254] | > 10
54 | COC(=O)c1ccc(Nc2ncc(F)c(Nc3ccc4c(c3)NC(=O)[C@H](C)O4)n2)cc1 [Compound 1263] | < 10
55 | C[C@H]1Oc2ccc(Nc3nc(Nc4ccc(C(N)=O)cc4)ncc3F)cc2NC1=O [Compound 1265] | < 10
56 | COC(=O)c1ccc(Nc2ncc(F)c(Nc3ccc4c(c3)NC(=O)[C@@H](C)O4)n2)cc1 [Compound 1266] | < 10
57 | COC(=O)c1ccc(Nc2ncc(F)c(Nc3ccc(OC)c(Cl)c3)n2)cc1 [Compound 1322] | < 10
58 | NC(=O)c1ccc(Nc2nc(Cl)ncc2F)cc1 [Compound 1327] | > 10
59 | NC(=O)c1ccc(Nc2nc(Nc3cccc(O)c3)ncc2F)cc1 [Compound 1334] | < 10
60 | NC(=O)c1ccc(Nc2nc(Nc3cc(Cl)c(O)c(Cl)c3)ncc2F)cc1 [Compound 1335] | < 10
61 | COc1ccc(Nc2ncc(F)c(Nc3ccc(C(N)=O)cc3)n2)cc1Cl [Compound 1336] | < 10
62 | NC(=O)c1ccc(Nc2ncc(F)c(Nc3ccc(C(N)=O)cc3)n2)cc1 [Compound 1339] | > 10

Same assay, conditions: low cell density CHMC, IgE activation, tryptase, 3 pt; read-out: LD Tryptase, CHMC, IgE, 3 pt

Row | SMILES | IC50 [µM]
63 | CN1CCN(c2ccc(Nc3ncc(F)c(Nc4cc(C5CC5)n[nH]4)n3)cc2C(F)(F)F)CC1 [Compound 1211] | < 10
64 | CN1CCN(c2ccc(Nc3ncc(F)c(NC4CCC4)n3)cc2CO)CC1 [Compound 1243, N4-Cyclobutyl-5-fluoro-N2-[3-hydroxymethyl-4-(4-methylpiperazino)phenyl]-2,4-pyrimidinediamine Bishydrogen chloride salt] | < 10
65 | Cc1cc(C)cc(Nc2ncc(F)c(NCC3COc4ccccc4O3)n2)c1 (stereo not drawn) [Compound 1256, N4-[ (2,3-Dihydro-1,4-benzodioxan-2-yl)methyl]-N2-(3,5-dimethylphenyl)-5-fluoro-2,4-pyrimidinediamine] | < 10
66 | COc1cc(Nc2ncc(F)c(NCC3COc4ccccc4O3)n2)cc(OC)c1 (stereo not drawn) [Compound 1258, N4-[ (2,3-Dihydro-1,4-benzodioxan-2-yl)methyl]-N2-(3,5-dimethoxyphenyl)-5-fluoro-2,4-pyrimidinediamine] | < 10
67 | COc1ccc(Nc2ncc(F)c(NCC3COc4ccccc4O3)n2)cc1Cl (stereo not drawn) [Compound 1259, N2-(3-Chloro-4-methoxyphenyl)-N4-[ (2,3-dihydro-1,4-benzodioxan-2-yl)methyl]-5-fluoro-2,4-pyrimidinediamine] | < 10
68 | C[C@H]1Oc2ccc(Nc3nc(Nc4cccc(CN)c4)ncc3F)cc2NC1=O [Compound 1280] | < 10

Same assay, conditions: low cell density CHMC, IgE activation, tryptase, 8 pt; read-out: LD Tryptase, CHMC, IgE, 8 pt

Row | SMILES | IC50 [µM]
69 | CNC(=O)COc1cccc(Nc2ncc(F)c(NCC3COc4ccccc4O3)n2)c1 (stereo not drawn) [Compound 1257, N4-[ (2,3-Dihydro-1,4-benzodioxan-2-yl)methyl]-5-fluoro-N2-[3-(N-methylamino)carbonylmethyleneoxyphenyl]-2,4-pyrimidinediamine] | < 10
70 | Fc1cnc(Nc2ccc3cn[nH]c3c2)nc1NCC1COc2ccccc2O1 (stereo not drawn) [Compound 1260, N4-[ (2,3-Dihydro-1,4-benzodioxan-2-yl)methyl]-5-fluoro-N2-(indazol-6-yl)-2,4-pyrimidinediamine] | < 10
71 | C[C@H]1Oc2ccc(Nc3nc(Nc4cccc(CN)c4)ncc3F)cc2NC1=O [Compound 1280] | < 10
72 | CNC(=O)CNC(=O)c1ccc(Nc2ncc(F)c(Nc3ccc(OC)c(Cl)c3)n2)cc1 [Compound 1325] | < 10
